Data on two molecules can be found in article PMC5791972 (PLoS ONE, 2018).

The structures appear in SMILES notation. Read-outs that look alike come from different tables or passages of the source.

In experiment [1] the test system is basolateral amygdala neurons. Description: Slice recordings of CCK-4 induced EPSCs. It is filed as cell-based, mouse.
The target of another experiment is T1, tyrosine hydroxylase (Rattus norvegicus, UniProt P04177).
T1 construct: rat striatum; from tissue; host or cells: rat striatum
Description: enzyme assay. It is filed as biochemical. The note with it: 1.0E-06 M.

A further experiment deals with rTRPC5 (Rattus norvegicus, UniProt Q8VD38). Description: Whole-cell manual patch clamp. It is filed as cell-based. A general note: In patch-clamp work, channel activity is measured electrically.
A further experiment deals with T2, H4 (h) (Homo sapiens, UniProt Q9H3N8).
T2 construct: host or cells: HEK-293 cells
It is filed as binding. The note with it: 1.0E-06 M.

The next experiment has as its target T3, MC3 (h) (Homo sapiens, UniProt P41968).
T3 construct: host or cells: CHO cells
In kind it is binding.

The subject of a further experiment is rolipram. It is filed as binding, mouse. The following applies: 1.0E-06 M.
The target of the next experiment is T4, 5-HT2C (h) (Homo sapiens, UniProt P28335).
T4 construct: host or cells: HEK-293 cells
T4 sequence (P28335 33-458): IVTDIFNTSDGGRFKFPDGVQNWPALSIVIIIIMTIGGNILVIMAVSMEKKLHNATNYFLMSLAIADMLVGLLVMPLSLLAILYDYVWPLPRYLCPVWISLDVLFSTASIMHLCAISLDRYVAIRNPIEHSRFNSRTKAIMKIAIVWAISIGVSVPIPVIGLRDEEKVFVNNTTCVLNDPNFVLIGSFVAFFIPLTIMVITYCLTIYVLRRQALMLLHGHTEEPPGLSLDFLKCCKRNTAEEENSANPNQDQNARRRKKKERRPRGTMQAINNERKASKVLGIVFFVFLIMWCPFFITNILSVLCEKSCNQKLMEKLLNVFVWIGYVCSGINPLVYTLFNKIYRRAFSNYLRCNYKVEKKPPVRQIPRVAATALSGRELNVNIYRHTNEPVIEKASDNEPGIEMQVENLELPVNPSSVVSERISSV
It is filed as binding. The following applies: 1.0E-06 M.

The test system of a further experiment is SKCa channel. It is filed as binding, rat. The note with it: 1.0E-06 M.
Experiment [2] has as its target T5, choline transporter (CHT1) (h) (Homo sapiens, UniProt Q9GZV3).
T5 construct: host or cells: CHO cells
T5 sequence (Q9GZV3 1-580): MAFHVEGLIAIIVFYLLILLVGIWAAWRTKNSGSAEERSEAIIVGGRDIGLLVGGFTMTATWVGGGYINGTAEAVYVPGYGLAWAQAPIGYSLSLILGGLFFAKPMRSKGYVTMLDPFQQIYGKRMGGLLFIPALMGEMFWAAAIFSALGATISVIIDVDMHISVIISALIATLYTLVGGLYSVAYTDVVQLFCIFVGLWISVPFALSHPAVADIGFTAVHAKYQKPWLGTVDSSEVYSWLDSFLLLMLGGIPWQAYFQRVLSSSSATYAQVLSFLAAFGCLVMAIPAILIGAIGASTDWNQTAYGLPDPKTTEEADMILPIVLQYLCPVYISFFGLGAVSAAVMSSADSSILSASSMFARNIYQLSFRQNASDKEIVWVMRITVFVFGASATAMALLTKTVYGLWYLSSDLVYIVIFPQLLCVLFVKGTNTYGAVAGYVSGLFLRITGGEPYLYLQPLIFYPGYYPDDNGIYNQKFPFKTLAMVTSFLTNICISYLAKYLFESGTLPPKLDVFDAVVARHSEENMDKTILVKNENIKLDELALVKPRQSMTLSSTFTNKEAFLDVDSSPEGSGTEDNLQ
It is filed as binding. The note with it: 1.0E-06 M.

For another experiment, the target named is T6, ACE (h) (Homo sapiens, UniProt P12821).
T6 construct: Cerep (contract assay)
Description: enzyme assay. In kind it is biochemical. The following applies: 1.0E-06 M.

The target of the next experiment is Abl kinase (h) (Homo sapiens, UniProt P00519). Description: biochemical. The following applies: 1.0E-06 M.
Another experiment deals with TRPM8 (Homo sapiens, UniProt Q7Z2W7). Description: cell-based.
In another experiment the target is TRPC6 (Homo sapiens, UniProt Q9Y210). Description: cell-based.
Another experiment deals with T7, M2 (h) (Homo sapiens, UniProt P08172).
T7 sequence (P08172 1-466): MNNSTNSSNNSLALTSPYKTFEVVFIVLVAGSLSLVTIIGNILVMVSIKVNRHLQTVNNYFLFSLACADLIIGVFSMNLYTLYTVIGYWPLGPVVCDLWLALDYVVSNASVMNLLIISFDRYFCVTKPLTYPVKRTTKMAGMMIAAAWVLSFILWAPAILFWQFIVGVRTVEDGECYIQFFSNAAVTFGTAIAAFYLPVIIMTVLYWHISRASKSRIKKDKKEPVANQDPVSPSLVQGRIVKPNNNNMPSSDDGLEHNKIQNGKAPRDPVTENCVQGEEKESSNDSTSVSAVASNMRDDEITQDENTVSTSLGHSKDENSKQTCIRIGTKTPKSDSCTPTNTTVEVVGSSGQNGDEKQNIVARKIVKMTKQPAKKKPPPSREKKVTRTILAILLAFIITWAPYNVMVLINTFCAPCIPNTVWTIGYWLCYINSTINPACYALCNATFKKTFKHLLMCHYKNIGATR
Description: biochemical.

In a further experiment the target is 5-HT1B (Rattus norvegicus, UniProt P28564). Description: biochemical.
Chain of 5-HT1B (P28564 whole entry): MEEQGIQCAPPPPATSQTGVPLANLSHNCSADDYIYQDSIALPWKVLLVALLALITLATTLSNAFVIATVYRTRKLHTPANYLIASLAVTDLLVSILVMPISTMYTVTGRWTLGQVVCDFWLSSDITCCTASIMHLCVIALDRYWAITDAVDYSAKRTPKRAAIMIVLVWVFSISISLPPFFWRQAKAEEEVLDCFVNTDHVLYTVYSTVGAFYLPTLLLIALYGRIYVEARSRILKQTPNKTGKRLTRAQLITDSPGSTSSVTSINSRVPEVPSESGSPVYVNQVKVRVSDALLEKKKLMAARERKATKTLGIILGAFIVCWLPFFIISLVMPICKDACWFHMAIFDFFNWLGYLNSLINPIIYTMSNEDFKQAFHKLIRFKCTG

Chain of Abl kinase (h) (P00519 whole entry): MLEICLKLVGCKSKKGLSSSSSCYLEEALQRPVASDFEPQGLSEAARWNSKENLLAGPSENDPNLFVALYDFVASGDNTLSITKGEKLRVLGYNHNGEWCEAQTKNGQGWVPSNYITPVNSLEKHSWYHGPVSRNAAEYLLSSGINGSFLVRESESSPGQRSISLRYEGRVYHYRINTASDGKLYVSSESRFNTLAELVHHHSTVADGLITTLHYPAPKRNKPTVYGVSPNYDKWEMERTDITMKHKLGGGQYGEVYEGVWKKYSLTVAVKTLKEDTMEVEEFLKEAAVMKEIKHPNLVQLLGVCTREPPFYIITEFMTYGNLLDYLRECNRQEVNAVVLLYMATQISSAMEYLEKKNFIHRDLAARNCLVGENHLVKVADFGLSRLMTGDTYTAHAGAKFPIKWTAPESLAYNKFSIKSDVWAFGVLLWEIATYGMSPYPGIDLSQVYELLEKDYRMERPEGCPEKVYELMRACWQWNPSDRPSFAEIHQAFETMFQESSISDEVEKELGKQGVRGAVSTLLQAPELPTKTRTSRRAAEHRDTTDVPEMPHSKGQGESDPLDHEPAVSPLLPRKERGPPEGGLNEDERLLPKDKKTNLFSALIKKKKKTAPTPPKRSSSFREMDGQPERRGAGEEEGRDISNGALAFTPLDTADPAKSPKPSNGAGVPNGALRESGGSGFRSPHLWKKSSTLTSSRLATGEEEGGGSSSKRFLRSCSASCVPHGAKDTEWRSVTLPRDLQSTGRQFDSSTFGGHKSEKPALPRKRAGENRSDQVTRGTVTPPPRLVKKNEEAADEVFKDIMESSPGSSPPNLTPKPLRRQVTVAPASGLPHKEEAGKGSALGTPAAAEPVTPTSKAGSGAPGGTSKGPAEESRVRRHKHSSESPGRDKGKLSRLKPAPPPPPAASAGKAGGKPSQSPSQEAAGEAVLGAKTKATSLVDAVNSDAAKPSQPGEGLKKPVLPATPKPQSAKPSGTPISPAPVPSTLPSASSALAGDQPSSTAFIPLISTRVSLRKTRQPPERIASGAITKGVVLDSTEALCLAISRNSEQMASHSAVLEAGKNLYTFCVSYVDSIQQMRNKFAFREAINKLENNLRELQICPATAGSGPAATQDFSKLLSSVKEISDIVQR
T2 sequence (Q9H3N8 whole entry): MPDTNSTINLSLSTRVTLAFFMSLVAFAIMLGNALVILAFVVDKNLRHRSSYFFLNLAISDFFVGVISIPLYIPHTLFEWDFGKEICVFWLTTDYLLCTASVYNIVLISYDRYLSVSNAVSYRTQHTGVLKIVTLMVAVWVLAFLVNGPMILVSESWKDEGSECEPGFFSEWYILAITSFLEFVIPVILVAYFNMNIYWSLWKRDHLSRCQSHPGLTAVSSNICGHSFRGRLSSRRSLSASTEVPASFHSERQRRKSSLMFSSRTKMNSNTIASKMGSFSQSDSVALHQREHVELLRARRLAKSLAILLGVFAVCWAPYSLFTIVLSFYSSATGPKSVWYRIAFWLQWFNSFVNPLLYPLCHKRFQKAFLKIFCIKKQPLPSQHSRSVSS
T6 sequence (P12821 30-1306): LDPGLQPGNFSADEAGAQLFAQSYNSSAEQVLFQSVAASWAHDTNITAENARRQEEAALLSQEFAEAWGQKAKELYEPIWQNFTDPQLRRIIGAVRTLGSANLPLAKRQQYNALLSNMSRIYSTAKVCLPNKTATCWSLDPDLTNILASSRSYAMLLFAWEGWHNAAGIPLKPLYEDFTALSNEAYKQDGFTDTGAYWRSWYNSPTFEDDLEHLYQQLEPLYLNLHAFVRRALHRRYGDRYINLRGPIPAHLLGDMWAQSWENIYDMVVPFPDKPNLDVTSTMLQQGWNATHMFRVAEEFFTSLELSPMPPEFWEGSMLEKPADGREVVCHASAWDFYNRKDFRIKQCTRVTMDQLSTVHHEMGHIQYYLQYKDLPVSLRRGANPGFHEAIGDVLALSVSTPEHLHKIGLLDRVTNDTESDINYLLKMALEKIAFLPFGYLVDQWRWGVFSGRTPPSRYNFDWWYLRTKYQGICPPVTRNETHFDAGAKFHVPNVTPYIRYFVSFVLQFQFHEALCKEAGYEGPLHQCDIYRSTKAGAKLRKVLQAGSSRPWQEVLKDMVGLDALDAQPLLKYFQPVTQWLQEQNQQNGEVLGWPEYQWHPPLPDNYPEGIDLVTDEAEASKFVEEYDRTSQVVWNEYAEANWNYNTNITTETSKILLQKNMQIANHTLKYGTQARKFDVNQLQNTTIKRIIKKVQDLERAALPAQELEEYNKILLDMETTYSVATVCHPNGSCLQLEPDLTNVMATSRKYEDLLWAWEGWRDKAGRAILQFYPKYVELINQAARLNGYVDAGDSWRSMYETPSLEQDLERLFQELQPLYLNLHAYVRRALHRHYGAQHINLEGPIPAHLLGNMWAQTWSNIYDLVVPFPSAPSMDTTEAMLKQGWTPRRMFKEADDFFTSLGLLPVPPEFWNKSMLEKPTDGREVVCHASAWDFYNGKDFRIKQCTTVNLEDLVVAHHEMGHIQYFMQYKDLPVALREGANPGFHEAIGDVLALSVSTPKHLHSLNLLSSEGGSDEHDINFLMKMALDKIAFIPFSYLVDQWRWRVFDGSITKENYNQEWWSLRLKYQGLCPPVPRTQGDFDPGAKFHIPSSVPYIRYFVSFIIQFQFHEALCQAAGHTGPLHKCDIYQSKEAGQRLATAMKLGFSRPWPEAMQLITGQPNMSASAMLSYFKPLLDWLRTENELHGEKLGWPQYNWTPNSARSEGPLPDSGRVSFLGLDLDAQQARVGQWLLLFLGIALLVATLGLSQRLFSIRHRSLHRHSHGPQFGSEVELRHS
T3 sequence (P41968 whole entry): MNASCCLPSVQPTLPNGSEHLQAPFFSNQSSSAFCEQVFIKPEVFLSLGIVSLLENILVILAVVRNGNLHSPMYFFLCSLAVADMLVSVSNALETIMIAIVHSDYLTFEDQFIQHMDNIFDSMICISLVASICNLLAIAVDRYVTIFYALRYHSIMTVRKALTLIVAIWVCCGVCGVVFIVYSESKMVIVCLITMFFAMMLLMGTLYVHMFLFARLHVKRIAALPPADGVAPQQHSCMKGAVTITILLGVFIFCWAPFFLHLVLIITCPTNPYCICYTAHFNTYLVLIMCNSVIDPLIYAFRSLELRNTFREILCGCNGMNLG
T1 sequence (P04177 whole entry): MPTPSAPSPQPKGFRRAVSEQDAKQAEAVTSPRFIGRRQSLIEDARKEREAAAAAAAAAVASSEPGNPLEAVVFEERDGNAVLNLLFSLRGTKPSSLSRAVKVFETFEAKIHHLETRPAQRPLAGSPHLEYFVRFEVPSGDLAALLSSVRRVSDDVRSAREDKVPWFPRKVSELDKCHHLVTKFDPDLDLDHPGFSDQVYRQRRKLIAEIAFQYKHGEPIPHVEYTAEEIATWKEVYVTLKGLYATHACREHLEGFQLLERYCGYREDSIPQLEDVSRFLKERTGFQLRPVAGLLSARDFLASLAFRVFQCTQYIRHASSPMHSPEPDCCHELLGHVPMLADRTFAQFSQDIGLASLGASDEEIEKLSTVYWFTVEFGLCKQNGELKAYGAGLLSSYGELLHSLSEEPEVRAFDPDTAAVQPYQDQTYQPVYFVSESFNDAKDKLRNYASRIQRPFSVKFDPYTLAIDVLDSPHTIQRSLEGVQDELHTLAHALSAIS
Chain of TRPC6 (Q9Y210 whole entry, species assumed): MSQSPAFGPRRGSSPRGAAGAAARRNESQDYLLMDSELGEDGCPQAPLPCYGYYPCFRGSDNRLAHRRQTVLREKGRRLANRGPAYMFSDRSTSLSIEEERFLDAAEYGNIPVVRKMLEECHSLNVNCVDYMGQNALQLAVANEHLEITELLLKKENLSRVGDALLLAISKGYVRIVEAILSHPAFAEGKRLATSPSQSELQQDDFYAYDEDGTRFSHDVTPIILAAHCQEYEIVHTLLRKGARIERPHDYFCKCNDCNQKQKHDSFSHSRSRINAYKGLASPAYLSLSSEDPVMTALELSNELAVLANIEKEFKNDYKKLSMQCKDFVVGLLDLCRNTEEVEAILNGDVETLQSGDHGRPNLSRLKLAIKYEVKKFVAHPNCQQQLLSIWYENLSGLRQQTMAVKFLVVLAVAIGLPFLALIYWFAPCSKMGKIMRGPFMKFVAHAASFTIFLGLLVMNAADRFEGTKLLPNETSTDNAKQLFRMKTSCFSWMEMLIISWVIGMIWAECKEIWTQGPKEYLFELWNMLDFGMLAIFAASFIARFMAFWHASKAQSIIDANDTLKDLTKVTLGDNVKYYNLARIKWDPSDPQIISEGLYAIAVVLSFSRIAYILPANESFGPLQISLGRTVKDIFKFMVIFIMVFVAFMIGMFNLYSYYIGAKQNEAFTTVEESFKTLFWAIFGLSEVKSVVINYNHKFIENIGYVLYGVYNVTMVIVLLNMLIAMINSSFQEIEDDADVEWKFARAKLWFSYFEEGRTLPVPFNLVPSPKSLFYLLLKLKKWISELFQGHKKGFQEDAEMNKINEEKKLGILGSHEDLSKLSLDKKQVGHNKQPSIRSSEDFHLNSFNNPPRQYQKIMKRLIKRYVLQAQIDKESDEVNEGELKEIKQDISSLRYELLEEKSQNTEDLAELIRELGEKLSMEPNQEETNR

For `Cn1c(=O)n(CCCO)c(=O)c2c1nc(Oc1cccc(Cl)c1)n2Cc1ccc(Cl)cc1` [HC-070], the “effect on CCK-4 stimulated increase of postsynaptic currents” value in experiment [1] (20 nM, CCK-4 1 μM) is recorded as “pronounced attenuation of the CCK-4 related effect”. Also, in experiment [1] (slices pretreated with 20 nM HC-070, n = 8), the “basal synaptic activity prior to CCK-4 addition” value is on record as 154±35 postsynaptic currents/minute. Further, the inhibition at 1 µM at tyrosine hydroxylase (read-out: % Inhibition 1st) was -27.2%; at tyrosine hydroxylase (read-out: % Inhibition Mean), -23%.
With `Cn1c(=O)n(CCCO)c(=O)c2c1nc(Oc1cccc(OC(F)(F)F)c1)n2Cc1ccc(Cl)cc1` [HC-608], the IC50 was ~0.00041 µM against rTRPC5, > 1.64 µM against TRPM8 and > 1.64 µM against TRPC6. Further, the inhibition at 1 µM was -13.6% at H4 (h) (read-out: % Inhibition 1st); -1.9% on H4 (h) (read-out: % Inhibition 2nd); -7.8% at H4 (h) (read-out: % Inhibition Mean); 14.4% at MC3 (h) (1.0E-06 M, read-out: % Inhibition 1st); 15.3% at MC3 (h) (1.0E-06 M, read-out: % Inhibition 2nd); 14.8% at MC3 (h) (read-out: % Inhibition Mean). Besides, the inhibition at 1 µM at 5-HT2C (h) (read-out: % Inhibition 1st) is 12.1%; on 5-HT2C (h) (read-out: % Inhibition 2nd) it was 12.6%; on 5-HT2C (h) (read-out: % Inhibition Mean), 12.3%; in [2] (read-out: % Inhibition 1st), -5.8%; in experiment [2] (read-out: % Inhibition 2nd), -1.9%; in [2] (read-out: % Inhibition Mean), -3.9%. For the same molecule, the inhibition at 1 µM on ACE (h) (read-out: % Inhibition 1st) amounted to 0%; at ACE (h) (read-out: % Inhibition 2nd) it was 6%; at ACE (h) (read-out: % Inhibition Mean), 3%; on Abl kinase (h) (read-out: % Inhibition 1st) it was 11.4%; on Abl kinase (h) (read-out: % Inhibition 2nd) it was 10.2%; on Abl kinase (h) (read-out: % Inhibition Mean), 10.8%. For the same molecule, the inhibition at 1 µM on M2 (h) (read-out: % Inhibition 1st) is -15.9%; at M2 (h) (read-out: % Inhibition 2nd), -14.2%; at M2 (h) (read-out: % Inhibition Mean) it was -15%; on 5-HT1B (read-out: % Inhibition 1st), -11%; on 5-HT1B (read-out: % Inhibition 2nd), -9.4%; on 5-HT1B (read-out: % Inhibition Mean), -10.2%. Further, the entries for the “% Inhibition 1st” value in the experiment with rolipram and in the experiment with SKCa channel were -4.6% and -2.5%, respectively. In addition, the figures for the “% Inhibition 2nd” value in the experiment on rolipram and in the experiment with SKCa channel were 0.5% and -4.7%, respectively. For the same molecule, the “% Inhibition Mean” value is reported as -2.1% in the experiment on rolipram and -3.6% in the experiment with SKCa channel.

By inhibition is commonly meant the change of the read-out against control, counted positive when it falls. As usually defined, the IC50 is the concentration that gives 50% inhibition. Read a low IC50 as greater potency.
